According to patent US5413915A (priority 1991, dated 1995):
Marks after values point to notes of the source that are not given here.

What was measured:
rat liver microsomes [1] = format: biochemical; design: key: Positive: the development of coloration denoted a positive response; Negative: the absence of such coloration denoted a negative response
Salmonella typhimurium = details: cited from earlier work
[2] = in vivo; cited from earlier work
[3] = in vivo; cited from earlier work; remark: listed apart in the source
rat liver microsomes [4] = format: biochemical; design: unit not given here
rat liver microsomes [5] = assay: Color development in detection elements with different leuco dyes (Table 2); format: biochemical; details: applied dose 10 μmol (formaldehyde 1 μmol); for New Color Development, NBTZ: unexposed control also Black
Method: Solutions containing 0.5 mM of the respective dyes in 0.1 M TRIS buffer, pH=7.4 (except for nitro blue tetrazolium, 5.0 mM in 50% ethanolic TRIS, pH=7.4) were bleached with a few crystals of sodium sulfite or sodium dithionite, then plied in 0.02 mL aliquots as test spots on a clear sheet of transparency film. Spontaneous color development in air was noted (Table 2). Subsequently, a suspension of rat liver microsomes containing 1 mM NADPH and 1 mg/mL gelatin in 0.1 M TRIS-MOPS buffer (pH=7.7) was plied in 0.05 mL aliquots over the dried leuco-dye test spots. After drying, color development condition was noted, and the test spots saved for exposure tests to chemical substances (Table 2). Exposures were carried out by layering 0.01 mL of 0.1-1.0 M solutions of test chemical substances onto the test spots, and changes in color noted over time.

Molecule | Mutagenicity (Salmonella typhimurium) | Tumorigen Activity [2] | Teratogen Activity [3] | Detector Response, threshold dose (rat liver microsomes [4]) | further results
CC(=O)O [Acetate] | - | - | - |  | Invention Response (rat liver microsomes [1]): Negative; Carcinogenic Status [2]: Negative
c1ccc(-c2cnc(-c3ccc(-c4ncc(-c5ccccc5)o4)cc3)o2)cc1 [POPOP] |  |  |  |  | Invention Response (rat liver microsomes [1]): Negative; Carcinogenic Status [2]: Negative
CC(C)[C@@H](C)/C=C/[C@@H](C)[C@H]1CC[C@H]2C3=CC=C4C[C@@H](O)CC[C@]4(C)[C@H]3CC[C@]12C [Ergosterol] | - | - | + | 0.1 | New Color Development, Methyl Green leuco dye (rat liver microsomes [5]): Green; New Color Development, Methyl Violet leuco dye (rat liver microsomes [5]): Violet; New Color Development, Naphthol Blue-Black leuco dye (rat liver microsomes [5]): None; New Color Development, Nile Blue A leuco dye (rat liver microsomes [5]): Blue; New Color Development, Safranin O leuco dye (rat liver microsomes [5]): Pink; New Color Development, NBTZ (rat liver microsomes [5]): Black
O=c1ccc2ccccc2o1 [Coumarin] |  |  |  |  | Invention Response (rat liver microsomes [1]): Positive; Carcinogenic Status [2]: Positive
OC[C@H]1O[C@@](CO)(O[C@H]2O[C@H](CO)[C@@H](O)[C@H](O)[C@H]2O)[C@@H](O)[C@@H]1O [Sucrose] |  |  |  |  | Invention Response (rat liver microsomes [1]): Negative; Carcinogenic Status [2]: Negative
CCOC(=O)c1ccc(O)cc1 [Ethyl p-Hydroxybenzoate] | - | - | + | 30 | 
Oc1ccccc1Cl [2-Chlorophenol] | - | + | - | < 1 | 
O=C1C=CC(=O)C=C1.Oc1ccc(O)cc1 [Quinhydrone] | - | +^e | - | 0.1-0.2 | 
C=Cc1ccccc1 [Styrene] |  |  |  |  | Invention Response (rat liver microsomes [1]): Negative; Carcinogenic Status [2]: Negative
Copper(II) | - | +/- | + | 5 | 
CC(Cl)(Cl)Cl [CH3 CCl3] |  |  |  |  | New Color Development, Methyl Green leuco dye (rat liver microsomes [5]): None; New Color Development, Methyl Violet leuco dye (rat liver microsomes [5]): None^a,b; New Color Development, Naphthol Blue-Black leuco dye (rat liver microsomes [5]): None; New Color Development, Nile Blue A leuco dye (rat liver microsomes [5]): None; New Color Development, Safranin O leuco dye (rat liver microsomes [5]): None; New Color Development, NBTZ (rat liver microsomes [5]): Black
O=C(O)CNCP(=O)(O)O [Glyphosate (ind.), Glyphosate] | - | - | - | 0.3 | 
O=C1c2ccccc2C(=O)c2ccccc21 [Anthraquinone] | - | - | - | 1-20 | 
O=N[O-].[Na+] [NaNO2] | + | + | + | 0.1 | 
Cc1cccc(O)c1 [m-Cresol] | - | - | - | 2 | 
NC=O [Formamide] | - | - | + | 100 | 
CCNc1nc(Cl)nc(NC(C)C)n1 [Atrazine (ind.), Atrazine] | - | +^e | - | 0.05 | 
NC(N)=S [2-Thiourea] | + | + | + | 7 | 
Nc1ccccc1 [Aniline] | + | +^e | - | 5 | Invention Response (rat liver microsomes [1]): Positive; Carcinogenic Status [2]: Possible
C=CC#N [Acrylonitrile] | + | + | + | 20 | 
CCN(CC)N=O [Diethylnitrosamine] | + | + | + | 0.1-1 | 
c1ccc(Nc2ccccc2)cc1 [Diphenylamine] | - | - | + | 100 | 

Molecule | Mutagenicity (Salmonella typhimurium) | Tumorigen Activity [2] | Teratogen Activity [3] | Detector Response, threshold dose (rat liver microsomes [4]) | further results
C[C@]12CCC(=O)C=C1CC[C@@H]1[C@@H]2[C@@H](O)C[C@@]2(C)[C@H]1CC[C@]2(O)C(=O)CO [Hydrocortisone] | - | - | + | 0.1 | 
CCOP(=S)(OCC)Oc1nc(Cl)c(Cl)cc1Cl [Chlorpyrifos (ind.), Chlorpyrifos] | - | - | + | 0.01 | 
O=S1OCC2C(CO1)C1(Cl)C(Cl)=C(Cl)C2(Cl)C1(Cl)Cl (stereo not drawn) [Endosulfan (ind.), Endosulfan] | - | +^b | + | 0.1 | Tumorigen Activity, assignment based on NCI/NTP carcinogenesis bioassay results [2]: -
ClC1=C(Cl)C2(Cl)C3C(Cl)C(Cl)CC3C1(Cl)C2(Cl)Cl (stereo not drawn) [Chlordane] |  |  |  |  | Invention Response (rat liver microsomes [1]): Positive; Carcinogenic Status [2]: Positive
C=CC(=O)NCNC(=O)C=C [Methylene(bis)acrylamide, Methylene(bis)-acrylamide] | - | - | - | < 2 | 
Cl[C@H]1[C@H](Cl)[C@@H](Cl)[C@@H](Cl)[C@H](Cl)[C@H]1Cl [Lindane (USP), Lindane] | - | + | + | 0.2 | 
Oc1cccc(Cl)c1 [3-Chlorophenol] | - | + | - | < 1 | 
CCN(CC)C(=S)S [Diethyldithiocarbamic acid] | - | +^t | + | 0.2 | Tumorigen Activity, assignment based on NCI/NTP carcinogenesis bioassay results [2]: -
[Dy+3] [Dysprosium(III)] | - | - | - | 5 | 
Oc1ccc(Cl)cc1 [4-Chlorophenol] | + | + | - | < 1 | 
C[C@H](CCC(=O)O)[C@H]1CC[C@H]2[C@@H]3CC[C@@H]4C[C@H](O)CC[C@]4(C)[C@H]3C[C@H](O)[C@]12C [Deoxycholate] | - | - | + | 0.5 | 
CCOP(=S)(OCC)Oc1cc(C)nc(C(C)C)n1 [Diazinon (ind.), Diazinon] | - | - | + | 1-100 | 
Cr(VI) | + | +^e | - | 0.1 | 
Nc1c(Cl)c(Cl)nc(C(=O)O)c1Cl [Picloram (ind.), Picloram] | - |  | + | 0.01 | Tumorigen Activity, assignment based on NCI/NTP carcinogenesis bioassay results [2]: +
N#CN [Cyanamid] | + | +^e | - | 30 | 
[Ba+2] [Barium(II)] | - | - | - | 20-100 | 
[La+3] [Lanthanum(III)] | - | - | - | 5 | 
[Mn+2] [Manganese(II)] | - | + | + | 5 | 
CCOC(=O)CC(SP(=S)(OC)OC)C(=O)OCC (stereo not drawn) [Malathion (ind.), Malathion] | - | - | + | 0.1 | Mutagenicity, direct-acting mutagen (Salmonella typhimurium): +
CN(C)C(=O)Nc1ccc(Cl)c(Cl)c1 [DCMU, 3(3,4-Dichlorophenyl)-1,1,dimethylurea] |  | +^e | + |  | Invention Response (rat liver microsomes [1]): Positive; Carcinogenic Status [2]: Teratogen only
Cc1cc(C(C)(C)C)c(O)c(C(C)(C)C)c1 [BHT] | - | +/- | - | 200 | 
ClCCCl [1,2-Dichloroethane] | + | + | - | 20 | 
